We go through 17 sequences from patent US7524503B2, “Human cytomegalovirus (HCMV) cytotoxic T cell epitopes, polyepitopes compositions comprising same and diagnostic and prophylactic and therapeutic uses therefor” (priority 2001, dated 2009).

One assay deals with T1, HLA A2 (Homo sapiens, UniProt P04439, D140Y/D185E/D98H/E176V/E277Q/G131W/G231S/I119V/I121R/I166T/I218V/L300P/L318F/N151K/N90K/P208A/P217A/Q86G/Q94H/R138H/R169H/T345S).
T1 construct: endogenous in cells; host or cells: T2 cells
It counts as cell-based. The note with it: HLA A2 on T2 cells; relative increase in HLA expression vs no peptide at 26° C.

The subject of assay [1] is PBMC from healthy HCMV seropositive donors. In words: IFN-γ ELISPOT assay. It counts as cell-based, human. To be noted: for ELISPOT Responses (SFC/10^6 PBMC): peptide 10 μg/ml. How it is done: ELISPOT assay was used to assess whether stimulation of PBMC from a large panel of seropositive donors with HCMV peptides could induce IFN-γ expression in T cells. Briefly, a 96-well nitrocellulose plate (Multiscreen, Millipore) was coated overnight at 4° C. with mouse monoclonal antibody anti-IFN-γ IgG1 (10 μg/ml; Mabtech Nacka, Sweden). The plate was then washed six times in Phosphate Buffered Saline (PBS) and blocked for 1 hour at 37° C. with PBS supplemented with 5% FCS. The blocking solution was removed and PBMC from healthy HCMV seropositive donors were added at a concentration of 2.5×10^5 cells per well in growth medium. These cells were incubated for 18 h at 37° C. in a 5% CO2 atmosphere in the presence of synthetic peptides from HCMV antigens (10 μg/ml). After incubation, the plate was washed three times with PBS supplemented with 0.05% Tween, followed by three washes with PBS alone. Biotinylated anti-IFN-γ (Mabtech, Nacka Sweden) detection antibody was added to each well at a final concentration of 1 μg/ml in PBS. The plates were incubated at room temperature in the dark for 4 h and then washed, as described above. Streptavidin-Alkaline phosphatase (Sigma) was added to each well at a final concentration of 1 μg/ml in PBS and incubated at room temperature in the dark for 2 h. After a final wash with PBS, the substrate, 5-bromo-4-chloro-3-indolyl phosphate and nitro blue tetrazolium, was added to each well and the plates incubated for 30 min at RT. Cells that produced IFN-γ in response to the presence of peptide were detected as purple spots on the nitrocellulose membrane of each well. The spots were counted automatically using a closed-circuit camera (CCD) and ImagePro image analysis software or automated ELISPOT reader (AID, Germany). The T cell precursor frequency for each peptide was based on the total number of PBMC in the well and the number of peptide-specific spots per well, over an average of 3 wells. The number of peptide-specific spots was also calculated by subtracting the negative control values, which consisted of PBMC without peptide (an average of 3 wells), from the test wells.
To determine whether memory CTL responses against the predictive HCMV potential epitopes could be detected in healthy seropositive virus carriers, we used the ELISPOT assay, which allows rapid identification of CTL epitopes without prolonged in vitro culture.
We tested epitopes that were restricted for HLA A1, A3, A24, A26, B7, B8, B27, B35 and B44 in ELISPOT assays, to determine whether memory T cell responses could be detected in healthy HLA-matched virus carriers. PBMC from a cohort of healthy virus carriers (Table 2) were stimulated with individual peptides and the cells that produced IFN-γ were detected. CTL epitopes that were restricted through either HLA A1, A3, A24, A26, B7, B8 or B27, were identified.
Thus, a total of 450 peptides were produced. ELISPOT assays were used to determine whether ex vivo memory T cell responses could be detected in a cohort of 14 healthy virus carriers (Table 2). PBMC were stimulated with individual peptides and the cells that produced IFN-γ were detected.

On to RIFAELEGV [reference compound], for which the “MSE (MHC stabilization efficiency)” value with HLA A2 was “++ (++ = 100-199%)”. In assay [1] (cohort of eight HLA A2-positive healthy seropositive donors), the “donors recognizing the epitope in ELISPOT” value is 5 of the 8. The “ELISPOT Responses (SFC/10^6 PBMC)” value in assay [1] (donor fifteen) is “CP(275) SFC/10^6 PBMC”; in assay [1] (donor six) it was 170 SFC/10^6 PBMC; in assay [1] (donor ten), 236 SFC/10^6 PBMC.

In the case of “RIWCLVVCV (human cytomegalovirus gB CTL epitope peptide)”, the “MSE (MHC stabilization efficiency)” value with HLA A2 is given as “− (− = 0-50%)”. Besides, the “ELISPOT Responses (SFC/10^6 PBMC)” value in assay [1] (donor fifteen) is reported as 105 SFC/10^6 PBMC; in assay [1] (donor one), 108 SFC/10^6 PBMC.

With MLNIPSINV [reference compound], the “MSE (MHC stabilization efficiency)” value with HLA A2 was “++ (++ = 100-199%)”. Moreover, the “ELISPOT Responses (SFC/10^6 PBMC)” value in assay [1] (donor one) was 178 SFC/10^6 PBMC; in assay [1] (donor seven), 65 SFC/10^6 PBMC.

“LMLLKNGTV (human cytomegalovirus gH CTL epitope peptide)”: the “MSE (MHC stabilization efficiency)” value in the assay with HLA A2 is given as “− (− = 0-50%)”. In assay [1] (donor seventeen), the “ELISPOT Responses (SFC/10^6 PBMC)” value is given as “CJ(80) SFC/10^6 PBMC”.

Regarding “YILEETSVM (human cytomegalovirus IE1 CTL epitope peptide) [reference compound]”, the “MSE (MHC stabilization efficiency)” value with HLA A2 is “++ (++ = 100-199%)”. The “ELISPOT Responses (SFC/10^6 PBMC)” value in assay [1] (donor seven) was “SB(764) SFC/10^6 PBMC”.

For the sequence “YLFSLVVLV (human cytomegalovirus US3 CTL epitope peptide)”, the “MSE (MHC stabilization efficiency)” value in the assay with HLA A2 is reported as “+ (+ = 51-99%)”. In addition, in assay [1] (donor ten), the “ELISPOT Responses (SFC/10^6 PBMC)” value is listed as “WS(73) SFC/10^6 PBMC”.

ILARNLVPM: in the assay with HLA A2, the “MSE (MHC stabilization efficiency)” value is given as “++ (++ = 100-199%)”. The “ELISPOT Responses (SFC/10^6 PBMC)” value in assay [1] (donor delta) is “SE(170) SFC/10^6 PBMC”.

Consider “KMSVRETLV (human cytomegalovirus pp150 CTL epitope peptide)”, for which the “MSE (MHC stabilization efficiency)” value with HLA A2 is “++ (++ = 100-199%)”. In assay [1] (donor delta), the “ELISPOT Responses (SFC/10^6 PBMC)” value is “SE(69) SFC/10^6 PBMC”.

For the sequence “LIFGHLPRV (human cytomegalovirus gH CTL epitope peptide)”, the “MSE (MHC stabilization efficiency)” value with HLA A2 was “++ (++ = 100-199%)”. Moreover, the “ELISPOT Responses (SFC/10^6 PBMC)” value in assay [1] (donor delta) is on record as “SE(84) SFC/10^6 PBMC”.

For the sequence “LLIDPTSGL (human cytomegalovirus pp28 CTL epitope peptide)”, the “MSE (MHC stabilization efficiency)” value with HLA A2 is reported as “+ (+ = 51-99%)”. For the same sequence, the “ELISPOT Responses (SFC/10^6 PBMC)” value in assay [1] (donor beta) is recorded as 77 SFC/10^6 PBMC; in assay [1] (donor seven) it was 270 SFC/10^6 PBMC.

Regarding “ALVNFLRHL (human cytomegalovirus pp150 CTL epitope peptide)”, the “MSE (MHC stabilization efficiency)” value with HLA A2 is “++ (++ = 100-199%)”. Further, the “ELISPOT Responses (SFC/10^6 PBMC)” value in assay [1] (donor ten) is on record as “WS(57) SFC/10^6 PBMC”.

For the sequence LMNGQQIFL, the “MSE (MHC stabilization efficiency)” value with HLA A2 is listed as “++ (++ = 100-199%)”. Further, the “ELISPOT Responses (SFC/10^6 PBMC)” value in assay [1] (donor fifteen) is 217 SFC/10^6 PBMC; in assay [1] (donor ten), 751 SFC/10^6 PBMC.

For “TLLVLFIVYV (human cytomegalovirus US2 CTL epitope peptide)”, the “MSE (MHC stabilization efficiency)” value in the assay with HLA A2 was “− (− = 0-50%)”. The “ELISPOT Responses (SFC/10^6 PBMC)” value in assay [1] (donor delta) was “SE(46) SFC/10^6 PBMC”.

Take “LLFRTLLVYL (human cytomegalovirus US3 CTL epitope peptide)”: the “MSE (MHC stabilization efficiency)” value with HLA A2 is recorded as “+++ (+++ = 200-300%)”. Moreover, the “ELISPOT Responses (SFC/10^6 PBMC)” value is recorded as 76 SFC/10^6 PBMC in assay [1] (donor seven) and 77 SFC/10^6 PBMC in assay [1] (donor ten).

With “FLMEHTMPV (human cytomegalovirus IE2 CTL epitope peptide)”, the “MSE (MHC stabilization efficiency)” value with HLA A2 is “++ (++ = 100-199%)”. In assay [1] (donor ten), the “ELISPOT Responses (SFC/10^6 PBMC)” value is given as “WS(137) SFC/10^6 PBMC”.

“LLNCAVTKL (human cytomegalovirus pp50 CTL epitope peptide)”: the “MSE (MHC stabilization efficiency)” value in the assay with HLA A2 is “++ (++ = 100-199%)”. In addition, the “ELISPOT Responses (SFC/10^6 PBMC)” value in assay [1] (donor delta) was “SE(59) SFC/10^6 PBMC”.

“SLLSEFCRV (human cytomegalovirus IE1 CTL epitope peptide)”: in the assay with HLA A2, the “MSE (MHC stabilization efficiency)” value is “+++ (+++ = 200-300%)”. Moreover, the “ELISPOT Responses (SFC/10^6 PBMC)” value in assay [1] (donor ten) was “WS(471) SFC/10^6 PBMC”.
